Target: T1, human GluR4B receptor (Homo sapiens, UniProt P48058)
T1 construct: transported to the cell surface in mature form, lacking the signal peptide and consisting of 881 amino acids; expressed in transfected cells; host or cells: COS-1 cells (ATCC CRL 1650), transient, plasmid pcDNAI/humGluR4B
Experiment: ligand binding assay (NMDA), membranes of human GluR4B receptor-producing COS cells
Settings: COS cell membrane preparation

T1 sequence (P48058 21-902): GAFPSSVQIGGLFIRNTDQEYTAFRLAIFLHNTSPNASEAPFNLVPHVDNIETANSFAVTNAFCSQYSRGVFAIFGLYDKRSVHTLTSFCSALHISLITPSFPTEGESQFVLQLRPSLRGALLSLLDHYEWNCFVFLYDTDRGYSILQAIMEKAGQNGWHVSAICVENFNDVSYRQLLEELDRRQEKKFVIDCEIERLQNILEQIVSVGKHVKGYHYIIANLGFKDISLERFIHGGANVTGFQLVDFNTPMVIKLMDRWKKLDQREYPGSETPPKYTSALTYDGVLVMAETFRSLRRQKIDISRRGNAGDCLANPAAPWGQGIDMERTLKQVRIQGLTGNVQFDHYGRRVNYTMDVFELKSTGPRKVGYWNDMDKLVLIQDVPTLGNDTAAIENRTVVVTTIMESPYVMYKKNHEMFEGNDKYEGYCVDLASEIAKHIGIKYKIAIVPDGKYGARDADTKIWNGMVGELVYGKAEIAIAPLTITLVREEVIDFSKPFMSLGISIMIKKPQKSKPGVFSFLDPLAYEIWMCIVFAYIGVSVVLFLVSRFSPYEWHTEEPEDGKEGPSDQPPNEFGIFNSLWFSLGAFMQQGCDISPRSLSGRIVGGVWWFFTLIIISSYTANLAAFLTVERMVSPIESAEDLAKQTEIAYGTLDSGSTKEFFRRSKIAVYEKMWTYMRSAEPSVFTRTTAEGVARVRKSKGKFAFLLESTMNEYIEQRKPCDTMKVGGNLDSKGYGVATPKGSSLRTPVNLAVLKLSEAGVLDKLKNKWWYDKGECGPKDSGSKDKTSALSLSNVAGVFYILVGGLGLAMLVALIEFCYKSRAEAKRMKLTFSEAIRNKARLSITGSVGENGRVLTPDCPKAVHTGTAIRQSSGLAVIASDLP

**Q.** How did the “binding of NMDA to human GluR4B receptor” value turn out when `CN[C@H](CC(=O)O)C(=O)O` [NMDA, N-methyl-D-aspartate] was run?
**A.** The value was “little or no demonstrable binding”.
